Experimental data from patent publication US20260049105A1, “SELECTIVE MC4R LIGAND FOR TREATING OBESITY AND COGNITIVE LOSS” (ARIZONA BOARD OF REGENTS ON BEHALF OF THE UNIVERSITY OF …, priority 2022, published 2026).

Columns and labels:
hMC1R [1] = biological target: T1, hMC1R (Homo sapiens, UniProt Q01726); experiment: Adenylate cyclase (cAMP) assay in transfected HEK293 cells; assay type: cell-based; details: HEK293, 0.05 h; hM1CR; cAMP at 10 μM in relation to MT-II; read-out: Act %
T1 construct: expressed in transfected cells; host or cells: HEK293
T1 sequence (Q01726 whole entry): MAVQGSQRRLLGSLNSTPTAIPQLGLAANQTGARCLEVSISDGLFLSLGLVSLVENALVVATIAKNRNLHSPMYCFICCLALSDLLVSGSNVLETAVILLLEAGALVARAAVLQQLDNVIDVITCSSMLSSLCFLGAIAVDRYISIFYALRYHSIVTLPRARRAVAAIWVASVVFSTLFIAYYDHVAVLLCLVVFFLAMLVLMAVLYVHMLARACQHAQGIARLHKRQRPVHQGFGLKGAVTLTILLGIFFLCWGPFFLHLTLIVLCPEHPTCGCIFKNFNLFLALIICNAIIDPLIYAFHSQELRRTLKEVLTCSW
Experimental: (§1) HEK293 cells transfected with human melanocortin receptors were grown to confluence in MEM medium (GIBCO) containing 10% fetal bovine serum, 100 units/mL penicillin and streptomycin, and 1 mM sodium pyruvate. The cells were seeded on 96 well plates 48 hours before the assay, (100,000 cells/well). For the assay, the medium was removed and cells were rinsed with 1 mL of MEM buffer (GIBCO) or with Earle's balanced salt solution (EBSS, GIBCO). An aliquot (0.4 mL) of Earle's balanced salt solution was placed in each well along with isobutylmethylxanthine (IBMX; 5 μL; 0.5 mM) for 1 minute at 37° C. Varying concentrations of melanotropins (0.1 mL) were added and the cells incubated for 3 minutes at 37° C. The reaction was stopped by aspirating the buffer and adding ice-cold Tris/EDTA buffer to each well (0.15 mL). The 96 well plates were covered and placed on ice. After dislodging the cells, the plates were placed in a boiling water bath for 15 minutes. The cell lysate was then centrifuged for 10 minutes (4000 rpm), and 50 μL of the supernatant was aliquoted into perkinElmer glass fiber filter plate. cAMP content was measured by competitive binding assay in addition to 50 μL H^3 cAMP and 100 μL PKA. Then the system was placed on ice for 2 hours and then vacuum and filtered. 100 μL of the OptiPhase Supermix scintillation fluid was added to the plate. The plates stayed for 8 hours and then read by MicroBeta radiation plate reader.
(§2) IC50 and EC50 values represent the mean of duplicate experiments performed in triplicate. IC50 and EC50 estimates and their associated standard errors were determined by fitting the data using nonlinear least-squares analysis, with the help of Graphpad Prism 6.0 (Graphpad Software, San Diego, CA).
(§3) NA indicates 0% cAMP accumulation observed at 10 μM. The peptides were tested over a range of concentrations from 10^-10 to 10^-5 M.

hMC5R [2] = biological target: T2, hMC5R (Homo sapiens, UniProt P33032); experiment: as above; assay type: cell-based; details: hM5CR; for Emax at 10 µM: HEK293, 0.05 h, cAMP at 10 μM in relation to MT-II, read-out: Act %
T2 construct: expressed in transfected cells; host or cells: HEK293
T2 sequence (P33032 whole entry): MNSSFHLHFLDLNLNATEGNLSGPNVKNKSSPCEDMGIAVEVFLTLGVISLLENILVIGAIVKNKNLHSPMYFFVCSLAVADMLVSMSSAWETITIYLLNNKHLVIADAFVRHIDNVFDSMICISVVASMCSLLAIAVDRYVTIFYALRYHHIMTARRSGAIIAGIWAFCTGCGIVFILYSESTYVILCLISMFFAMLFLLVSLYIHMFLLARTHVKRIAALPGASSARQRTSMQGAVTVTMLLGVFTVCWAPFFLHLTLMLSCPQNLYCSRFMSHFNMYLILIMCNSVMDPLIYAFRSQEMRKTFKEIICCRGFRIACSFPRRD
Experimental: as §1, §2, §3

hMC3R [3] = biological target: T3, hMC3R (Homo sapiens, UniProt P41968); experiment: as above; assay type: cell-based; details: hM3CR; for Emax at 10 µM: HEK293, 0.05 h, cAMP at 10 μM in relation to MT-II, read-out: Act %
T3 construct: expressed in transfected cells; host or cells: HEK293
T3 sequence (P41968 whole entry): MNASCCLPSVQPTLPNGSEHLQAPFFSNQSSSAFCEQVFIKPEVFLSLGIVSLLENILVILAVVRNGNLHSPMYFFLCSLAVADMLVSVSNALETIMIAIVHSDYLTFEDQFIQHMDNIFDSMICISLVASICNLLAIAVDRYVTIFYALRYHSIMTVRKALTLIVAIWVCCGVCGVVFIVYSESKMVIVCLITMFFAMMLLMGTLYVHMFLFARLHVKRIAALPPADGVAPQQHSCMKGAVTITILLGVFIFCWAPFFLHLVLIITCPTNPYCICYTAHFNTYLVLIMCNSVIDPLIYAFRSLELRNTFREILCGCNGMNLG
Experimental: as §1, §2, §3

hMC4R [4] = biological target: T4, hMC4R (Homo sapiens, UniProt P32245); experiment: as above; assay type: cell-based; details: hM4CR; 50% maximal intracellular cAMP accumulation, N=4
T4 construct: expressed in transfected cells; host or cells: HEK293
T4 sequence (P32245 whole entry): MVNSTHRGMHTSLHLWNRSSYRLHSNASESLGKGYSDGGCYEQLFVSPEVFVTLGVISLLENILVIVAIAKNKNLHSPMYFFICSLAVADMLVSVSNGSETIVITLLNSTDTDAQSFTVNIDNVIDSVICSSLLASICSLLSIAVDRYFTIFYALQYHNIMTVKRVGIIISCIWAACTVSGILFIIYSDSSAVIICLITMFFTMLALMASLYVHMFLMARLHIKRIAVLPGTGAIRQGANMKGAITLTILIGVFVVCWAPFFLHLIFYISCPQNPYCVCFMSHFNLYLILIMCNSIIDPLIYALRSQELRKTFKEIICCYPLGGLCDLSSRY

hMC4R [5] = biological target: T4, hMC4R; experiment: Competitive receptor binding assay, whole HEK293 cells, 125I-NDP-α-MSH; details: hM4CR; for inhibition at 10 µM: 40 min, percentage of [125I]NDP-α-MSH displacement at 10 μM, read-out: BE%
Experimental: (§4) Competition binding experiments were performed on whole cells. The transfected HEK293 cell line with hMC4Rs were seeded on 96 well plates, 48 hours before the assay, 100,000 cells/well. For the assay, the medium was removed and cells were washed twice with a freshly prepared binding buffer containing 100% minimum essential medium with Earle's salt (MEM, GIBCO), 25 mM HEPES (pH 7.4), 0.2% bovine serum albumin, 1 mM 1,10-phenanthroline, 0.5 mg/L leupeptin, and 200 mg/L bacitracin. […] The medium was subsequently removed and each well was washed twice with the assay buffer. The cells are lysed by the addition of 250 μL of 0.1 NaOH and 250 μL of 1% Triton X-100. […] Data were analyzed using Graphpad Prism 6.0 (Graphpad Software, San Diego, CA).
as §2, with “CA). […]” for “CA).”

hMC4R [6] = biological target: T4, hMC4R; experiment: Adenylate cyclase (cAMP) assay in transfected HEK293 cells; assay type: cell-based; details: HEK293, 0.05 h; hM4CR; percentage of cAMP produced at 10 μM in relation to MT-II; read-out: Act%
Experimental: as §1, with “The” for “HEK293 cells transfected with human melanocortin receptors were grown to confluence in MEM medium (GIBCO) containing 10% fetal bovine serum, 100 units/mL penicillin and streptomycin, and 1 mM sodium pyruvate. The”, “reader. IC50 and EC50 values represent the mean of duplicate experiments performed in triplicate. […] NA indicates 0% cAMP accumulation observed at 10 μM. The peptides were tested over a range of concentrations from 10^-10 to 10^-5 M.” for “reader.”

hMC1R [7] = biological target: T1, hMC1R; experiment: Competitive receptor binding assay, whole HEK293 cells, 125I-NDP-α-MSH; details: 40 min; hM1CR; percentage of NDP-α-MSH displacement at 10 μM; read-out: BE %
Experimental: [The procedure below names another target; the source lists this target under the same test.] (§5) Competition binding experiments were performed on whole cells. The transfected HEK293 cell line with hMC4Rs were seeded on 96 well plates, 48 hours before the assay, 100,000 cells/well. For the assay, the medium was removed and cells were washed twice with a freshly prepared binding buffer containing 100% minimum essential medium with Earle's salt (MEM, GIBCO), 25 mM HEPES (pH 7.4), 0.2% bovine serum albumin, 1 mM 1,10-phenanthroline, 0.5 mg/L leupeptin, and 200 mg/L bacitracin. […] The medium was subsequently removed and each well was washed twice with the assay buffer. The cells are lysed by the addition of 250 μL of 0.1 NaOH and 250 μL of 1% Triton X-100. The lysed cell was transferred to the 12×75 mm glass tubes and the radioactivity was measured by Wallac 1470 WIZARD Gamma Counter. Data were analyzed using Graphpad Prism 6.0 (Graphpad Software, San Diego, CA).
as §2, §3

hMC3R [8] = biological target: T3, hMC3R; experiment: as above; details: 40 min; hM3CR; percentage of NDP-α-MSH displacement at 10 μM; read-out: BE %
Experimental: [The procedure below names another target; the source lists this target under the same test.] as §5, §2, §3

hMC5R [9] = biological target: T2, hMC5R; experiment: as above; details: 40 min; hM5CR; percentage of NDP-α-MSH displacement at 10 μM; read-out: BE %
Experimental: [The procedure below names another target; the source lists this target under the same test.] as §4, §2, §3

Emax at 10 µM (hMC1R [1]) [%] | Emax at 10 µM (hMC5R [2]) [%] | Emax at 10 µM (hMC3R [3]) [%] | EC50 (hMC4R [4]) [nM] | inhibition at 10 µM (hMC4R [5]) [%] | Emax at 10 µM (hMC4R [6]) [%] | inhibition at 10 µM (hMC1R [7]) [%] | inhibition at 10 µM (hMC3R [8]) [%] | inhibition at 10 µM (hMC5R [9]) [%] | EC50 (hMC5R [2]; cAMP accumulation, N=4) [nM] | EC50 (hMC3R [3]; cAMP accumulation, N=4) [nM] | IC50 (hMC4R [5]; concentration of peptide at 50% specific binding, N=4) [nM] | Structure (SMILES)
88 | 95 | 88 | > 1000 | 0 | 63 | 100 | 60 | 66 | – | – | – | CC(=O)N[C@@H](CCCNC(=N)N)C(=O)N[C@H]1CC(=O)NCCCC[C@@H](C(N)=O)NC(=O)C[C@H](Cc2c[nH]c3ccccc23)NC(=O)[C@H](CCCNC(=N)N)NC(=O)[C@@H](Cc2ccccc2)NC(=O)[C@@H]2CCCCN2C1=O [compound 1, Ac-Arg-cyclo[Asp-Pip-D-Phe-Arg-BTrp-Lys]-NH2]
100 | 62 | 59 | > 1000 | 23 | 84 | 100 | 100 | 0 | > 1000 | > 1000 | > 1000 | CC(=O)N[C@@H](CCCNC(=N)N)C(=O)N[C@H]1CC(=O)NCCCC[C@@H](C(N)=O)NC(=O)[C@H](Cc2c[nH]c3ccccc23)NC(=O)C[C@H](CCCNC(=N)N)NC(=O)[C@@H](Cc2ccc(F)cc2)NC(=O)[C@@H]2CCCCN2C1=O [compound 5, Ac-Arg-cyclo[Asp-Pip-D-Phe(4-F)-βArg-Trp-Lys]-NH2]
